Paper PMC9942120 (iScience, 2023)

What was measured:
Assay in all cases: direct LC-MS/MS profiling of modified tryptic peptides
Assay type in all cases: cell-based
S100A16 = target: T1, S100A16 (Homo sapiens, UniProt Q96FQ6); conditions: covalent at Cys4; H358 cells, […] AMG510, […] h (methods print […] h)
T1 sequence (Q96FQ6 1-103): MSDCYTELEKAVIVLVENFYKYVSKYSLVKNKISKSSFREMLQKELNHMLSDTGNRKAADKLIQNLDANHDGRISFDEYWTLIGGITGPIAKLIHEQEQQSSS

RTN4 = target: T2, RTN4 (Homo sapiens, UniProt Q9NQC3); conditions: covalent at Cys1101; H358 cells, […] AMG510, […] h (methods print […] h)
T2 sequence (Q9NQC3 1-1192): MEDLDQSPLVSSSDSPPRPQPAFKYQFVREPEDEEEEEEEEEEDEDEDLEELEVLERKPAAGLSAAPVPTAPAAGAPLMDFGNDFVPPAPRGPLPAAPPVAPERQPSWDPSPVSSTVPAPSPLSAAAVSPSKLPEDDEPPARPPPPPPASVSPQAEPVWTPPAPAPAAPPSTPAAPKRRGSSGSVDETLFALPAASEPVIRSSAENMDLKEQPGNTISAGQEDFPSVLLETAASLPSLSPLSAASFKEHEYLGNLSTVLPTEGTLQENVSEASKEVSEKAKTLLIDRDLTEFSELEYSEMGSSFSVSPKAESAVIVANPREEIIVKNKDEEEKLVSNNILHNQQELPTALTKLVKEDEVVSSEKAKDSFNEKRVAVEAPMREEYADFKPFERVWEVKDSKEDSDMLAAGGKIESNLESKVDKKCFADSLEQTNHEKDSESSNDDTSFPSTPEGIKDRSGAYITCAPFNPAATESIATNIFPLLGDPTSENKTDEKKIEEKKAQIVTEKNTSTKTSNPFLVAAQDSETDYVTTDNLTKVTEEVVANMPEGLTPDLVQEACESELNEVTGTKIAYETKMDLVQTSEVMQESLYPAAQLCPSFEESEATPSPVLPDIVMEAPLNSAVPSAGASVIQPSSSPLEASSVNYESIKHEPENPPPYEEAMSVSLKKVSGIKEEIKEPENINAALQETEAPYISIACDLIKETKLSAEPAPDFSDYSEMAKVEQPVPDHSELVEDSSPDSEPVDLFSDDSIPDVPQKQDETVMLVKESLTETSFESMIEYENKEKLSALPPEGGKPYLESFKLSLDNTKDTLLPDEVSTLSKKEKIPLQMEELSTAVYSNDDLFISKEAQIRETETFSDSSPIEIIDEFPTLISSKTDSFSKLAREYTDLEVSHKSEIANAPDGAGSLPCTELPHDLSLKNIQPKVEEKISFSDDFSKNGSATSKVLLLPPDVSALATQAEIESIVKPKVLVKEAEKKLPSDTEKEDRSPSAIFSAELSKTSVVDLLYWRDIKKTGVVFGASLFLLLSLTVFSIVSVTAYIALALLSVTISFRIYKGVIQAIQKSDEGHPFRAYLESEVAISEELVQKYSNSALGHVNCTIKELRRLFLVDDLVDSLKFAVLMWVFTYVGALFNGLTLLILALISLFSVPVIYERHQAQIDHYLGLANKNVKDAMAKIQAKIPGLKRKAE

KRT4 = KRT4 (Homo sapiens, UniProt P19013); conditions: covalent at Cys42; H358 cells, […] AMG510, […] h (methods print […] h)
KRT4, sequence (P19013 whole entry): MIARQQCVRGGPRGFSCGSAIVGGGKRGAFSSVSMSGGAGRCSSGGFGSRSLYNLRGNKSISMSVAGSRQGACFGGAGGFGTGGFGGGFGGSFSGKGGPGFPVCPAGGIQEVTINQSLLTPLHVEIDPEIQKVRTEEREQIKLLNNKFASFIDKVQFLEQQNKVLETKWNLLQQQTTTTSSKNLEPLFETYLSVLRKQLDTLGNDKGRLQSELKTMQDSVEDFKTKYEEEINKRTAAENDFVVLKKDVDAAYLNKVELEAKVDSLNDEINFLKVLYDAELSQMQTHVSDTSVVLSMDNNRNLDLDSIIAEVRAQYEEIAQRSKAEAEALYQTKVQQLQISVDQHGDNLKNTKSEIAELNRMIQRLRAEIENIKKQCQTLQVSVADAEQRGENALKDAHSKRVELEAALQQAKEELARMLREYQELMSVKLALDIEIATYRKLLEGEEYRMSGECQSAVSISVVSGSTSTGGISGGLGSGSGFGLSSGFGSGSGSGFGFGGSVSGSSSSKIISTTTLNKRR

ANXA2 = ANXA2 (Homo sapiens, UniProt P07355); conditions: covalent at Cys9; H358 cells, […] AMG510, […] h (methods print […] h)
ANXA2, sequence (P07355 2-339): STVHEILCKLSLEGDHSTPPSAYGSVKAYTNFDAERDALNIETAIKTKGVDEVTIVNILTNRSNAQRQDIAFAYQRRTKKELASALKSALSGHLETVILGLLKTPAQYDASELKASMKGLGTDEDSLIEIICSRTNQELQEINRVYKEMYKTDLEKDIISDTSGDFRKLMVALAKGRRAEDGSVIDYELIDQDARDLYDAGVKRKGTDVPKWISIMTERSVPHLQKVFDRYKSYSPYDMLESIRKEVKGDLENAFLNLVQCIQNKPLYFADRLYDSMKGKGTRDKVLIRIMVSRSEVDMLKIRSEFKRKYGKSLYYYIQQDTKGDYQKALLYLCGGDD

RAE1 = target: T3, RAE1 (Homo sapiens, UniProt P78406); conditions: covalent at Cys106; H358 cells, […] AMG510, […] h (methods print […] h)
T3 sequence (P78406 1-368): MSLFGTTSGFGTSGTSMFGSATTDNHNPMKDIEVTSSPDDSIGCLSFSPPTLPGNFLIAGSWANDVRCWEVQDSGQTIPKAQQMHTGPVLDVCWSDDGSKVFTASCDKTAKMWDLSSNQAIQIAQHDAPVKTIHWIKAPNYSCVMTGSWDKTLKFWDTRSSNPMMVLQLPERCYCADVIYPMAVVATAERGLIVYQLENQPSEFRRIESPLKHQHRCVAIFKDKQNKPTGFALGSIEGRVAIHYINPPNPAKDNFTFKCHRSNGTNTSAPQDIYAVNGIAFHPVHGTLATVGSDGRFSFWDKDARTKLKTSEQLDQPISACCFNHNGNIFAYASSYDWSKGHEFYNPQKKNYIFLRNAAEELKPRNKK

Which results are given for C=CC(=O)N1CCN(c2nc(=O)n(-c3c(C)ccnc3C(C)C)c3nc(-c4c(O)cccc4F)c(F)cc23)[C@@H](C)C1 [AMG510]?
direct LC-MS/MS profiling of modified tryptic peptides (S100A16): transporters (RAE1 C106, S100A16C4, VDAC2 C91 and C225); direct LC-MS/MS profiling of modified tryptic peptides (RTN4): off-targets that were identified in previous studies (RTN4 C1101 and HMOX2 C282); direct LC-MS/MS profiling of modified tryptic peptides (KRT4): differentiating epithelia cell markers (KRT4 C42); direct LC-MS/MS profiling of modified tryptic peptides (ANXA2): multifunctional membrane-binding protein (ANXA2 C9); direct LC-MS/MS profiling of modified tryptic peptides (RAE1): transporters (RAE1 C106, S100A16C4, VDAC2 C91 and C225)
